Source: patent US11957687B2 (REGENERON PHARMACEUTICALS, INC., priority 2019, dated 2024)

Biological target: HSD17B13 (Homo sapiens (Human), UniProt Q7Z5P4)
Test: HSD17B13 enzymatic inhibition assay (150 nM or 50 nM HSD17B13)
Assay type: biochemical
Details: 50 nM HSD17B13; read-out: Inhibition of 50 nM of HSD17B13 IC50

HSD17B13, sequence (Q7Z5P4 other isoform, or with tags, fused parts or gaps): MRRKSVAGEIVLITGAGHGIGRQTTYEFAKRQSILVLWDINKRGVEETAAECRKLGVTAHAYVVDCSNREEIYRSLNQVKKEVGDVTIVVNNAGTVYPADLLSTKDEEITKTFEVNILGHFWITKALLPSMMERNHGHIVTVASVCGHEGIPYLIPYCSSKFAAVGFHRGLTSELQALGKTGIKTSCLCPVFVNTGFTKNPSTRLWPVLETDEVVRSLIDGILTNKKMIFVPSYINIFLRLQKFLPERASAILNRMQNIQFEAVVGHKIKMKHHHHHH

| SMILES | IC50 |
| --- | --- |
| CC(=O)Nc1ccc(C(NC(=O)c2ccc(C(F)(F)F)[nH]c2=O)c2ccccc2)cc1 (centres unmarked) [Compound 66, N-((4-acetamidophenyl)(phenyl)methyl)-2-oxo-6-(trifluoromethyl)-1,2-dihydropyridine-3-carboxamide] | 7220 nM |
| COc1ccc2c(c1)CCC(OC)C2NC(=O)c1ccc(C(F)(F)F)[nH]c1=O (centres unmarked) [Compound 349, N-(2,6-dimethoxy-1,2,3,4-tetrahydronaphthalen-1-yl)-2-oxo-6-(trifluoromethyl)-1,2-dihydropyridine-3-carboxamide] | 1410 nM |
| O=C(NC1c2ccc(CC(F)(F)F)cc2Oc2cc(CC(F)(F)F)ccc21)c1ccc(C(F)(F)F)[nH]c1=O [Compound 144, N-(3,6-bis(2,2,2-trifluoroethyl)-9H-xanthen-9-yl)-2-oxo-6-(trifluoromethyl)-1,2-dihydropyridine-3-carboxamide] | 310 nM |
| C=CCc1ccc2c(c1)C(NC(=O)c1ccc(C(F)(F)F)[nH]c1=O)c1ccccc1O2 (centres unmarked) [Compound 471, N-(2-allyl-9H-xanthen-9-yl)-2-oxo-6-(trifluoromethyl)-1,2-dihydropyridine-3-carboxamide] | 280 nM |
| COCCOc1ccc2c(c1)Oc1ccccc1C2NC(=O)c1ccc(C(F)(F)F)[nH]c1=O (centres unmarked) [Compound 440, N-(3-(2-methoxyethoxy)-9H-xanthen-9-yl)-2-oxo-6-(trifluoromethyl)-1,2-dihydropyridine-3-carboxamide] | 700 nM |
| O=C(NC(c1ccccc1)c1ccc(-c2ccccn2)cc1)c1ccc(C(F)(F)F)[nH]c1=O (centres unmarked) [Compound 100, 2-oxo-N-(phenyl(4-(pyridin-2-yl)phenyl)methyl)-6-(trifluoromethyl)-1,2-dihydropyridine-3-carboxamide] | 740 nM |
| O=C(NC(c1ccccc1)c1ccc(-c2cnccn2)cc1)c1ccc(C(F)(F)F)[nH]c1=O (centres unmarked) [Compound 101, 2-oxo-N-(phenyl(4-(pyrazin-2-yl)phenyl)methyl)-6-(trifluoromethyl)-1,2-dihydropyridine-3-carboxamide] | 1230 nM |
| O=C(Nc1ccc(C(NC(=O)c2ccc(C(F)(F)F)[nH]c2=O)c2ccccc2)cc1)c1ccccc1 (centres unmarked) [Compound 75, N-((4-benzamidophenyl)(phenyl)methyl)-2-oxo-6-(trifluoromethyl)-1,2-dihydropyridine-3-carboxamide] | 1870 nM |
| COc1cc(-c2cc(C(=O)NC3c4ccc(C)cc4Oc4cc(C)ccc43)c(=O)[nH]c2C(F)(F)F)ccn1 [Compound 498, N-(3,6-dimethyl-9H-xanthen-9-yl)-2′-methoxy-6-oxo-2-(trifluoromethyl)-1,6-dihydro-[3,4′-bipyridine]-5-carboxamide] | 20 nM |
| Cc1ccc2c(c1)Oc1cc(C)ccc1C2NC(=O)c1cc(C2=CCNCC2)c(C(F)(F)F)[nH]c1=O [Compound 516, N-(3,6-dimethyl-9H-xanthen-9-yl)-6-oxo-2-(trifluoromethyl)-1,1′,2′,3′,6,6′-hexahydro-[3,4′-bipyridine]-5-carboxamide] | 200 nM |
| Cc1ccc2c(c1)Oc1cc(C)ccc1C2NC(=O)c1cc(C2=CCCCC2)c(C(F)(F)F)[nH]c1=O [Compound 505, 5-(cyclohex-1-en-1-yl)-N-(3,6-dimethyl-9H-xanthen-9-yl)-2-oxo-6-(trifluoromethyl)-1,2-dihydropyridine-3-carboxamide] | 80 nM |
| CCCc1cc(C(F)(F)F)[nH]c(=O)c1C(=O)NC1c2ccc(Cl)cc2Oc2cc(Cl)ccc21 [Compound 210, N-(3,6-dichloro-9H-xanthen-9-yl)-2-oxo-4-propyl-6-(trifluoromethyl)-1,2-dihydropyridine-3-carboxamide] | 930 nM |
| CCN1CCN(c2cc(C(=O)NC3c4ccc(C)cc4Oc4cc(C)ccc43)c(=O)[nH]c2C(F)(F)F)CC1 [Compound 512, N-(3,6-dimethyl-9H-xanthen-9-yl)-5-(4-ethylpiperazin-1-yl)-2-oxo-6-(trifluoromethyl)-1,2-dihydropyridine-3-carboxamide] | 90 nM |
| CSc1ccccc1C(NC(=O)c1ccc(C(F)(F)F)[nH]c1=O)c1cccc(C)c1 (centres unmarked) [Compound 245, N-((2-(methylthio)phenyl)(m-tolyl)methyl)-2-oxo-6-(trifluoromethyl)-1,2-dihydropyridine-3-carboxamide] | 1080 nM |
| O=C(NC1c2ccccc2Oc2ccc(C3COC3)cc21)c1ccc(C(F)(F)F)[nH]c1=O (centres unmarked) [Compound 489, N-(2-(oxetan-3-yl)-9H-xanthen-9-yl)-2-oxo-6-(trifluoromethyl)-1,2-dihydropyridine-3-carboxamide] | 230 nM |
| Cc1ccc2c(c1)Oc1cc(C)ccc1C2NC(=O)c1ccc(C(C)C)[nH]c1=O [Compound 485, N-(3,6-dimethyl-9H-xanthen-9-yl)-6-isopropyl-2-oxo-1,2-dihydropyridine-3-carboxamide] | > 10000 nM |
| COc1ccc2c(c1)Sc1cc(N)ccc1C2NC(=O)c1ccc(C(F)(F)F)[nH]c1=O (centres unmarked) [Compound 411, N-(3-amino-6-methoxy-9H-thioxanthen-9-yl)-2-oxo-6-(trifluoromethyl)-1,2-dihydropyridine-3-carboxamide] | 80 nM |
| O=C(NC(c1ccc(Cl)cc1)c1cnccn1)c1ccc(C(F)(F)F)[nH]c1=O (centres unmarked) [Compound 70, N-((4-chlorophenyl)(pyrazin-2-yl)methyl)-2-oxo-6-(trifluoromethyl)-1,2-dihydropyridine-3-carboxamide] | > 10000 nM |

| SMILES | IC50 |
| --- | --- |
| Cc1ccc(C(C)NC(=O)c2ccc(C(F)(F)F)[nH]c2=O)cc1 (centres unmarked) [Compound 218] | 9550 nM |
| O=C(NC1c2ccccc2Oc2cc(C3CCC3)ccc21)c1ccc(C(F)(F)F)[nH]c1=O (centres unmarked) [Compound 151, N-(3-cyclobutyl-9H-xanthen-9-yl)-2-oxo-6-(trifluoromethyl)-1,2-dihydropyridine-3-carboxamide] | 290 nM |
| O=C(NC1c2ccc(Cl)cc2Oc2cc(Cl)ccc21)c1cnc(COc2cccc(C(F)(F)F)c2)[nH]c1=O [Compound 534, N-(3,6-dichloro-9H-xanthen-9-yl)-6-oxo-2-((3-(trifluoromethyl)phenoxy)methyl)-1,6-dihydropyrimidine-5-carboxamide] | 1080 nM |
| COc1ccc(-c2nc(SCc3cccc(C(F)(F)F)c3)[nH]c(=O)c2C#N)cc1 [Compound 283, 4-(4-methoxyphenyl)-6-oxo-2-((3-(trifluoromethyl)benzyl)thio)-1,6-dihydropyrimidine-5-carbonitrile] | 4760 nM |
| C=Cc1cc(C(=O)NC(c2ccc(C)cc2)c2ccc(C)cc2)c(=O)[nH]c1C(F)(F)F [Compound 118, N-(di-p-tolylmethyl)-2-oxo-6-(trifluoromethyl)-5-vinyl-1,2-dihydropyridine-3-carboxamide] | 300 nM |
| O=C(NC1CCCc2c(CCc3ccccc3)cccc21)c1ccc(C(F)(F)F)[nH]c1=O (centres unmarked) [Compound 335, 2-oxo-N-(5-phenethyl-1,2,3,4-tetrahydronaphthalen-1-yl)-6-(trifluoromethyl)-1,2-dihydropyridine-3-carboxamide] | 4470 nM |
| NCc1cccc2c1CCCC2NC(=O)c1ccc(C(F)(F)F)[nH]c1=O (centres unmarked) [Compound 313, N-(5-(aminomethyl)-1,2,3,4-tetrahydronaphthalen-1-yl)-2-oxo-6-(trifluoromethyl)-1,2-dihydropyridine-3-carboxamide] | > 10000 nM |
| O=C(NC(c1ccccc1)c1ccc(C2CCC2)cc1)c1ccc(C(F)(F)F)[nH]c1=O (centres unmarked) [Compound 77, N-((4-cyclobutylphenyl)(phenyl)methyl)-2-oxo-6-(trifluoromethyl)-1,2-dihydropyridine-3-carboxamide] | 680 nM |
| Cc1ccc(C(CC2CCOC2)NC(=O)c2ccc(C(F)(F)F)[nH]c2=O)cc1 (centres unmarked) [Compound 556, 2-oxo-N-(2-(tetrahydrofuran-3-yl)-1-(p-tolyl)ethyl)-6-(trifluoromethyl)-1,2-dihydropyridine-3-carboxamide] | 2350 nM |
| CC1CC(NC(=O)c2ccc(C(F)(F)F)[nH]c2=O)c2ccccc2O1 (centres unmarked) [Compound 129, N-(2-methylchroman-4-yl)-2-oxo-6-(trifluoromethyl)-1,2-dihydropyridine-3-carboxamide] | 4330 nM |
| Cc1ccc2c(c1)Oc1cccc(C)c1C2NC(=O)c1cc(N2CCCCC2)c(C(F)(F)F)[nH]c1=O (centres unmarked) [Compound 437, N-(1,6-dimethyl-9H-xanthen-9-yl)-2-oxo-5-(piperidin-1-yl)-6-(trifluoromethyl)-1,2-dihydropyridine-3-carboxamide] | 1290 nM |
| CCCC1=Cc2ccc(C)cc2C1NC(=O)c1ccc(C(F)(F)F)[nH]c1=O (centres unmarked) [Compound 340, N-(6-methyl-2-propyl-1H-inden-1-yl)-2-oxo-6-(trifluoromethyl)-1,2-dihydropyridine-3-carboxamide] | 190 nM |
| O=C(NC(c1ccccc1)c1ccc(C2CCNCC2)cc1)c1ccc(C(F)(F)F)[nH]c1=O (centres unmarked) [Compound 104, 2-oxo-N-(phenyl(4-(piperidin-4-yl)phenyl)methyl)-6-(trifluoromethyl)-1,2-dihydropyridine-3-carboxamide] | 8650 nM |
| COC1CCc2cc(C)ccc2C1NC(=O)c1ccc(C(F)(F)F)[nH]c1=O (centres unmarked) [Compound 350, N-(2-methoxy-6-methyl-1,2,3,4-tetrahydronaphthalen-1-yl)-2-oxo-6-(trifluoromethyl)-1,2-dihydropyridine-3-carboxamide] | 360 nM |
| O=C(NC(c1ccc(CC(F)(F)F)cc1)c1ccc(CC(F)(F)F)cc1)c1ccc(C(F)(F)F)[nH]c1=O [Compound 23A, N-(bis(4-(2,2,2-trifluoroethyl)phenyl)methyl)-2-oxo-6-(trifluoromethyl)-1,2-dihydropyridine-3-carboxamide] | 990 nM |
| O=C(NC1CCSc2ccccc21)c1ccc(C(F)(F)F)[nH]c1=O (centres unmarked) [Compound 127, 2-oxo-N-(thiochroman-4-yl)-6-(trifluoromethyl)-1,2-dihydropyridine-3-carboxamide] | 3750 nM |
| O=C(NC(c1ccccc1)c1ccc(CO)cc1)c1ccc(C(F)(F)F)[nH]c1=O (centres unmarked) [Compound 109, N-((4-(hydroxymethyl)phenyl) (phenyl)methyl)-2-oxo-6-(trifluoromethyl)-1,2-dihydropyridine-3-carboxamide] | 820 nM |
